Data as given in patent US12628825B2, “Methods of controlling or preventing infestation of plants by plant-parasitic nematodes of the genus Aphelenchoides spp., especially Aphelenchoides besseyi” (SYNGENTA CROP PROTECTION AG, priority 2020, dated 2026).

System: Aphelenchoides besseyi
Test: Soybean pot trial in the greenhouse, seed treatment, nematode control
Type: in vivo
Details: 28-day after inoculation assessment
Procedure: A soybean pot trial was carried out in the greenhouse of Holambra Field Station, state of Sao Paulo, Brazil, to evaluate the efficacy of nematicidal treatments against Aphelenchoides besseyi.
The seeds of the susceptible soybean variety Nidera 6828 IPRO were treated (seed treatment) at the field station with the use of a slurry (spray solution) of 0.6 liter per 100 kg of seeds of soybean. The treated seeds (treatments 3-10) were then compared with the untreated checks.
Two seeds were sowed in 1-liter pots with the Holambra Mix (25% of Holambra station soil and 75% pasteurized sand). […] The inoculation of each plant with the nematode was performed at 8 days after emergence (at the crop stage V1) by using a pipet with 1000 juveniles of Aphelenchoides per plant, directed to the base of the plant. Each plot of the trial was 1 pot containing 1 infested plant of soybean. A total of 6 replicates per treatment was used. The plants were grown in separated plastic chambers (to avoid contamination of plots) inside a greenhouse that averaged 30° C. in the day and 20° C. in the night. Plants were watered many times per day (for keeping a favourable environment for the growth of nematode population and migration to the aerial part of plants) by an automatic sprinkler system. […]

Structure (SMILES): O=C(N[C@@H]1CC[C@@H]1c1ccc(Cl)cc1Cl)c1cccnc1C(F)(F)F (racemic) [cyclobutrifluram]
- comparison to Avicta 500FS and Ilevo 600FS (even at the lowest rate tested of 5 g AI per 100 kg of seeds): statistically superior
- activity against Aphelenchoides besseyi which attacked soybean (seed treatment): excellent activity
